According to publication PMC3752901 (Clinical cancer research : an official journal of the …, 2013):
Like-named read-outs stand apart in the source and are kept apart here.

Legend:
[1] = molecular target: T1, mouse Abcc4 (Mus musculus, UniProt E9Q236); assay: Accumulation/efflux in Saos-2 cells transfected with Abcc4; conditions: 100 μM, 4-h incubation
T1 sequence (E9Q236 1-1325): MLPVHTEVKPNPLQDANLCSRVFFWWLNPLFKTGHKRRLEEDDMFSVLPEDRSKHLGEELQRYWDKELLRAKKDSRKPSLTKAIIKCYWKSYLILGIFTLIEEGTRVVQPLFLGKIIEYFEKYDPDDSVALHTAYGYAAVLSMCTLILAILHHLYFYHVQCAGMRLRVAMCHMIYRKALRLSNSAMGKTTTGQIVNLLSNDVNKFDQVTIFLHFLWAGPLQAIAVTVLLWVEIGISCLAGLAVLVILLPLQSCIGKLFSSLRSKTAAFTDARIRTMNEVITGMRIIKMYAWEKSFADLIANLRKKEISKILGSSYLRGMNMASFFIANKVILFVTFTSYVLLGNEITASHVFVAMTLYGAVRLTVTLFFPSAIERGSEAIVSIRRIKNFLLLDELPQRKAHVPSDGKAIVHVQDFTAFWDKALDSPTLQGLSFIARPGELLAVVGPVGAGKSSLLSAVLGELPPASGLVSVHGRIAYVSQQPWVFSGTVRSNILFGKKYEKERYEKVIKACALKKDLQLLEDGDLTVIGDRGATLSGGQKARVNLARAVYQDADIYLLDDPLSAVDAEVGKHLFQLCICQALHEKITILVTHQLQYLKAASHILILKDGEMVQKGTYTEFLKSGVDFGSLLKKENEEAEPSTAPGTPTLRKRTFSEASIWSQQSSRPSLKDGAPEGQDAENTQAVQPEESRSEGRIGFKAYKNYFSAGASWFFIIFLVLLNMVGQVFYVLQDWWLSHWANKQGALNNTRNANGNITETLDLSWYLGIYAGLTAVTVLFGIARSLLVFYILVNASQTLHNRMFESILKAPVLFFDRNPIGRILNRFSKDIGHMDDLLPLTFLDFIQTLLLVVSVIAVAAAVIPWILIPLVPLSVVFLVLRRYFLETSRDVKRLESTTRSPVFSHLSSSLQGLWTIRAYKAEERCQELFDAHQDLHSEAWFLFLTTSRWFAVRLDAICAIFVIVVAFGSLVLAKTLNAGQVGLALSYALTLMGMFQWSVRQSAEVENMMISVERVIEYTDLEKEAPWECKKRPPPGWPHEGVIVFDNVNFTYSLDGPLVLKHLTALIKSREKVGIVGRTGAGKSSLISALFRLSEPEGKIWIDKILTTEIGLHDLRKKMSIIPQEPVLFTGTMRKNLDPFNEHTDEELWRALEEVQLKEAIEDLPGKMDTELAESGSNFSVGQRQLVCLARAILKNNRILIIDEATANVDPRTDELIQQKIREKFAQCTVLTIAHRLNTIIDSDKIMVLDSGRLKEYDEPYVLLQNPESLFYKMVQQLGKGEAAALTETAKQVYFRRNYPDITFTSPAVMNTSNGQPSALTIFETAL

[2] = Binding to serum proteins; type: in vitro ADME; conditions: male, C57BL/6, mouse
[3] = human, oral administration; cited from earlier work
[4] = cited from earlier work
[5] = Plasma pharmacokinetics in wildtype and Abcc4; conditions: for clearance / Cmax / Tmax: male, C57BL/6, mouse, plasma, 10 mg/kg; for clearance: CL
[6] = molecular target: ABCC3 (MRP3) (Homo sapiens, UniProt O15438); assay: Uptake into inside-out Sf9 vesicles expressing ABCC3; type: in vitro ADME; conditions: same experimental conditions as ABCC4 vesicles
Chain of ABCC3 (MRP3) (O15438 whole entry): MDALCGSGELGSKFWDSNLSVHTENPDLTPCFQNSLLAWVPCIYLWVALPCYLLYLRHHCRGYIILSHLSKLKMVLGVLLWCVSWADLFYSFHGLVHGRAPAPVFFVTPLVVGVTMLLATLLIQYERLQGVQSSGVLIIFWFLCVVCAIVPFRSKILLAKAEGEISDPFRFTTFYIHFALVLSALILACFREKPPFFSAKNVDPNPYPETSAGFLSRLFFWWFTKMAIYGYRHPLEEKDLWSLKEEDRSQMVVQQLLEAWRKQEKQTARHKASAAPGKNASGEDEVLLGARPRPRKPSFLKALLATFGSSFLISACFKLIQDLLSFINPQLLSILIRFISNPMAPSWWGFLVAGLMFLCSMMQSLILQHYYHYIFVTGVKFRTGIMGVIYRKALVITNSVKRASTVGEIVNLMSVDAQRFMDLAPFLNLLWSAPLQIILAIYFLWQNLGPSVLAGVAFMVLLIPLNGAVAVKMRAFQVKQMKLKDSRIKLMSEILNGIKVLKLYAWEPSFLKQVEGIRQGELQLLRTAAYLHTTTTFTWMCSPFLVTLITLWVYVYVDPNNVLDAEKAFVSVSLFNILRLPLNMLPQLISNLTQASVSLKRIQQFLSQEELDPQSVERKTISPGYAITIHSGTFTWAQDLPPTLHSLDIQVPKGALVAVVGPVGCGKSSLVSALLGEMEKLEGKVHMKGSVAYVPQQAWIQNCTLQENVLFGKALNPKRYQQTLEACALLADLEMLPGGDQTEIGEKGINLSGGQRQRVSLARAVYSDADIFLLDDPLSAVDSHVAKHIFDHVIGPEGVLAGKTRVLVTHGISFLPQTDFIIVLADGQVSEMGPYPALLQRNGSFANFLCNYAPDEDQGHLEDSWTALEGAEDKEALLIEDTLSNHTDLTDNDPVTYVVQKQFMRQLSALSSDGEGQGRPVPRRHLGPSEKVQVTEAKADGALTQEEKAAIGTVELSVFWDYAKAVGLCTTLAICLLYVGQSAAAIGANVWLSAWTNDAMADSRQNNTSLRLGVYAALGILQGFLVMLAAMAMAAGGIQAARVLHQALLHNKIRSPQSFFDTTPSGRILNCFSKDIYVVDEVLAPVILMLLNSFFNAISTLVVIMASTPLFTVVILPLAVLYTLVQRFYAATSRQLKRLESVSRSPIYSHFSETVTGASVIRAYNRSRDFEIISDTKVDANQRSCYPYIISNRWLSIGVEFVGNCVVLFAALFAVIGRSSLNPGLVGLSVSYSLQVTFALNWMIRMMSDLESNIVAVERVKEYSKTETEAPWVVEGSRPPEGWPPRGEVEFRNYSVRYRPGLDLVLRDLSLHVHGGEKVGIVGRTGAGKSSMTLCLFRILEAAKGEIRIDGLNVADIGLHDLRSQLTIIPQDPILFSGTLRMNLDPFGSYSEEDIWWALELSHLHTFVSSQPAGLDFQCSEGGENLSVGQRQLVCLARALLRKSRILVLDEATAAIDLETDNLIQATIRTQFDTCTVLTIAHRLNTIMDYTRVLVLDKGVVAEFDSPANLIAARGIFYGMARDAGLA

[7] = iv, i.v. 10 mg/kg, Abcc4(−/−) mice
[8] = iv, i.v. 10 mg/kg, wildtype mice
[9] = po, oral 10 mg/kg, Abcc4(−/−) mice
[10] = po, oral 10 mg/kg, wildtype mice

transport by mouse Abcc4 (accumulation in Saos-2 cells overexpressing Abcc4 compared to control cells) [1]: significantly reduced accumulation | fraction unbound ([2]; Abcc4(−/−) mice): 0.0812 ± 0.00493 | fraction unbound ([2]; wildtype mice): 0.087 ± 0.0044 | clearance [5, 7]: 41.9 mL/min/kg | clearance [5, 8]: 49.6 mL/min/kg | Cmax [5, 7]: 3460 ng/mL | Cmax [5, 8]: 3390 ng/mL | Cmax [5, 9]: 48.1 ± 16.5 ng/mL | Cmax [5, 10]: 182 ± 93.8 ng/mL | Tmax [5, 9]: 2.19 ± 1.06 h | Tmax [5, 10]: 0.306 ± 0.223 h | Ka ([5]; oral 10 mg/kg, Abcc4(−/−) mice): 2.49 ± 0.92 h⁻¹ | Ka ([5]; oral 10 mg/kg, wildtype mice): 34.3 ± 6.85 h⁻¹ | accumulation in ABCC3 vesicles compared to control [6]: 1.3 fold
SMILES: Cc1nc(Nc2ncc(C(=O)Nc3c(C)cccc3Cl)s2)cc(N2CCN(CCO)CC2)n1 [dasatinib, Dasatinib]
unchanged drug as share of the dose recovered in feces [3]: 19% | unchanged drug as share of the dose recovered in urine [3]: less than 1% | coefficient of variation in AUC ([4]; adult patients): > 50% | coefficient of variation in AUC ([4]; pediatric patient population): ≤ 46%
